As a reminder, the Ki is a dissociation constant, usually derived from enzyme kinetics or from competition with a known ligand. A word on the Km: it is the concentration of substrate that gives half-maximal velocity.

Read-outs that look alike come from different tables or passages of the source.

Assay type in all cases: biochemical
Assay [1] has as its target T1, RCL (Rattus norvegicus, UniProt O35820).
T1 construct: made in house; host or cells: E. coli Bli5 (BL21 (DE3) pDIA17); pET24dRcl (untagged) or pET28aRcl (His-tagged)
T1 sequence (O35820 1-163): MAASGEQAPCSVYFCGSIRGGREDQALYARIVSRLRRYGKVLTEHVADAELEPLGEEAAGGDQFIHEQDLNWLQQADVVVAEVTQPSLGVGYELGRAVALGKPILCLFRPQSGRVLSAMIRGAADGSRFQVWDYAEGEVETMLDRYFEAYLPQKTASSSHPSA
Description: Compounds tested as substrate or inhibitor of RCL enzyme activity (dGMP hydrolysis). Particulars: for Ki: competitive for dGMP, double reciprocal plot; for substrate or inhibitor of the enzyme activity: versus dGMP as substrate. On the procedure: The enzyme activity was determined either spectrophotometrically by following one of the reaction products, […] or deoxyribose 5-phosphate, or by HPLC separation and UV detection of the released nucleobase and the remaining substrate.
The initial velocity of the reaction was measured either at variable concentration of dGMP both in the absence and presence of inhibitors, or at fixed concentration of dGMP and variable concentrations of inhibitors allowing the testing of the nature of the inhibition.

In assay [2] the target is T2, His-RCL (deoxynucleoside 5′-monophosphate N-glycosidase) (Rattus norvegicus, UniProt O35820).
T2 construct: made in house; host or cells: E. coli Bli5 (BL21 (DE3) pDIA17), plasmid pET28aRcl
T2 sequence (O35820 1-163): T1 sequence (O35820 1-163)
Description: Kinetic parameters of His-RCL (wild-type) with dNMP substrates, initial velocity measurements.
Description: The enzyme activity was determined either spectrophotometrically by following one of the reaction products, hypoxanthine or deoxyribose 5-phosphate, or by HPLC separation and UV detection of the released nucleobase and the remaining substrate. a) dIMP was used as a substrate and the hypoxanthine released oxidized to uric acid by xanthine oxidase. […] The decrease in absorbance at 340 nm was followed on a Amersham Biosciences Ultrospec 3100 pro spectrophotometer, using a millimolar absorbance coefficient of 6.22. […] Initial velocity experiments were carried out at variable concentrations of the six deoxynucleoside 5'-monophosphate: dAMP, dCMP, dGMP, dIMP, dTMP and dUMP (Table 1).

The target of assay [3] is T1, RCL. Briefly: pH dependence of RCL activity at saturating substrate. Particulars: for % of the maximal activity: pH 7.0; for % of the enzyme activity remained: pH 8.0; for pH optimum: saturating concentrations of substrate. On the procedure: Catalytic properties of the recombinant proteins. […] 50% of the maximal activity was still observed at pH 7.0 in the case of dCMP while it was only 20% in the case of dGMP. In both cases at pH 8.0, only 10% of the enzyme activity remained. Several metals were tested for their ability to stimulate or inhibit the reaction: Ca^2+, Mg^2+, Zn^2+, Na^+, and K^+.

Where [4] appears, read: Table 1, substrate of His-RCL, five concentrations.
Where [5] appears, read: Table 3, additional substrates of His-RCL, in 1/s.
Where [6] appears, read: Table 3, additional substrates of His-RCL, read-out: Km.
Setting [7] is: purine deoxynucleotides, read-out: Km of RCL.
The mark [8] stands for this setting: pyrimidine deoxynucleotides, read-out: Km of RCL.

As for `CSc1nc(N)nc2c1ncn2[C@@H]1O[C@H](COP(=O)(O)O)[C@@H](O)[C@H]1O`, at RCL [1], the Ki amounted to 10 µM and the “substrate or inhibitor of the enzyme activity” value (“substrate or inhibitor” for short) is “competitive inhibitors”.
As for `Nc1nc2c(ncn2[C@H]2C[C@H](O)[C@@H](COP(=O)(O)O)O2)c(=O)[nH]1` [dGMP], in assay [2], the Vmax was found to be 0.09 U. mg^−1. Moreover, the kcat turned out to be 0.0297 s⁻¹ in assay [2] (setting [4]); 0.0298 s⁻¹ in assay [2] (Table 2, Wt His-RCL, dGMP 250 μM to 20 mM); 0.033 in assay [2] (setting [5]); 0.0268 s⁻¹ in assay [2] (corresponds to Vmax). In addition, the figures for the Km in assay [2] (setting [6]) and in assay [2] (setting [7]) were 77 ± 20 µM and 50 µM, respectively. In assay [2] (kcat/Km comparison), the “times more efficiently cleaved than dAMP” value is recorded as 20 times. In addition, in assay [2] (kcat/Km comparison), the “times more efficiently cleaved than dIMP” value was determined as 40 times. The “% of the maximal activity” value at RCL [3] was 20%. Also, the “% of the enzyme activity remained” value at RCL [3] is on record as 10%. In addition, at RCL [3], the pH optimum is approximately 6.0 pH.
As for `C[n+]1cn([C@H]2C[C@H](O)[C@@H](COP(=O)(O)O)O2)c2nc(N)[nH]c(=O)c21` [N7-methyl-dGMP], the kcat in assay [2] (setting [5]) is 2.376. Further, the Km in assay [2] (setting [6]) is 470 ± 68 µM.
For the molecule `NC1=NC(=O)C2=NC(=O)N([C@H]3C[C@H](O)[C@@H](COP(=O)(O)O)O3)C2=N1` [8-oxo-dGMP, 8-oxo-deoxyguanosine 5′-monophosphate], the “substrate or inhibitor” value on RCL [1] is “neither a substrate nor an inhibitor”.
As for `Nc1nc2c(ncn2[C@@H]2O[C@H](COP(=O)(O)O)[C@@H](O)[C@H]2O)c(=O)[nH]1` [GMP], on RCL [1], the Ki amounted to 20 µM and the “substrate or inhibitor” value is listed as “competitive inhibitors”.
On to `Nc1ccn([C@H]2C[C@H](O)[C@@H](COP(=O)(O)O)O2)c(=O)n1` [dCMP], for which, in assay [2] (setting [4]), the kcat was found to be 0.0231 s⁻¹. Moreover, the Km in assay [2] (setting [8]) stood at 4000 µM. For the same molecule, on RCL [3], the “% of the maximal activity” value is recorded as 50%, the “% of the enzyme activity remained” value is listed as 10% and the pH optimum was approximately 6.0 pH.
Take `O=c1ccn([C@H]2C[C@H](O)[C@@H](COP(=O)(O)O)O2)c(=O)[nH]1` [dUMP]: in assay [2] (setting [4]), the kcat turned out to be 0.158 s⁻¹. Also, the Km in assay [2] (setting [8]) worked out at 15000 µM.
`Cc1cn([C@H]2C[C@H](O)[C@@H](COP(=O)(O)O)O2)c(=O)[nH]c1=O` [dTMP]: the Km in assay [2] (setting [8]) was more than 50000 µM.
For the molecule `Nc1ncnc2c1ncn2[C@H]1C[C@H](O)[C@@H](COP(=O)(O)O)O1` [dAMP], the kcat in assay [2] (setting [4]) came to 0.0066 s⁻¹. In addition, the Km in assay [2] (setting [7]) was 250 µM.
Turning to `Nc1nc2c(ncn2[C@H]2C[C@H](OP(=O)(O)O)[C@@H](CO)O2)c(=O)[nH]1` [2′-deoxyguanosine 3′-monophosphate], at RCL [1], the “substrate or inhibitor” value is given as “neither a substrate nor an inhibitor”.
Regarding `CCNc1nc2c(ncn2[C@H]2C[C@H](O)[C@@H](COP(=O)(O)O)O2)c(=O)[nH]1` [N2-ethyl-dGMP], the kcat in assay [2] (setting [5]) amounted to 0.0528. The Km in assay [2] (setting [6]) came out at 71 ± 8 µM.
On to `COc1nc(N)nc2c1ncn2[C@H]1C[C@H](O)[C@@H](COP(=O)(O)O)O1` [06-methyl-dGMP], for which the kcat in assay [2] (setting [5]) was found to be 0.033. Moreover, the Km in assay [2] (setting [6]) is 61 ± 16 µM.

The values are drawn from patent US7781394B2 (Institut Pasteur, priority 2006, dated 2010).
